Like-named read-outs stand apart in the source and are kept apart here.
What was measured:
[1] = system: 1205 Lu melanoma cells; test: MTS cell viability assay, 1205 Lu; conditions: Homo sapiens, 24 h
[2] = system: T-98-G; test: MTS assay, glioblastoma cells; conditions: Homo sapiens, T98G, 24 h
[3] = system: MDA-MB-231; test: MTS assay, breast cancer cells; conditions: Homo sapiens, MDA-MB-231, 24 h
[4] = system: UACC 903 melanoma cells; test: Tumor development in nude mice, subcutaneous UACC 903, i.p. treatment; conditions: for melanoma tumor volume: 0.76 μmoles (3 ppm selenium) i.p. thrice per week, day 24, doses 3× lower than isothiocyanates; for tumor burden: UACC 903
[5] = system: Caco-2; test: MTS assay, colon cancer cells; conditions: Homo sapiens, Caco-2, 24 h
[6] = system: PC-3; test: MTS assay, prostate cancer cells; conditions: Homo sapiens, PC-3, 24 h
[7] = system: UACC 903 melanoma cells; test: MTS cell viability assay, UACC 903; conditions: Homo sapiens, UACC-903, 24 h
[8] = system: HT-1080; test: MTS assay, fibrosarcoma cells; conditions: Homo sapiens, HT-1080, 24 h
[9] = system: WM115 melanoma cells; test: MTS cell viability assay, WM115; conditions: Homo sapiens, WM-115, 24 h
[10] = system: UACC 903M cells; test: IC50 of NAC conjugate in UACC 903M cells; type: cell-based
[11] = system: UACC 903 cells; test: BrdU ELISA cellular proliferation; type: cell-based, human; conditions: 24 hours; for proliferative potential with increasing concentrations: 5, 10, 15 μM
Method: Proliferation rate is measured using a BrdU ELISA kit (Roche Applied Sciences, Indianapolis, Ind.).
BrdUrd is used to label cells for 4-6 hours. At 15 μM concentration, ISC-4 and ISC-6 reduced UACC 903 cellular proliferative potential by ˜80-90% compared to controls. Results represent the average of 3 independent experiments; bars represent SEM. The average value is represented as the percentage of control DMSO treated cells.

[12] = system: Akt signaling pathway; test: Western blot of Akt signaling pathway in cultured melanoma cells (FIG. 9); conditions: 24 hours
[13] = system: UACC 903 cells; test: Apo-ONE caspase-3/7 apoptosis assay; type: cell-based, human; conditions: 24 hours; for cellular apoptosis with increasing concentrations (caspase-3/7 activity, words): 5, 10, 15 μM
Method: Apoptosis rates are measured using an Apo-ONE Homogenous caspase-3/7 Assay kit (Promega Corporation, Madison, Wis.).
The isoselenocyanate compounds promote apoptosis in melanoma cells. […] The graphs in FIGS. 3A and 3B show fold increase in caspase-3/7 activity relative to DMSO vehicle treated cells on the x-axis. Results represent average of 3 independent experiments. Bars indicate SEM.

[14] = system: UACC 903 cells; test: Cell cycle analysis (propidium iodide, FACScan); conditions: 24 hours
[15] = system: UACC-903 (Melanoma); test: IC-50 in various cell lines (Table V), UACC-903; type: cell-based; conditions: Homo sapiens
[16] = system: HT1080 (Soft Tissue Sarcoma); test: IC-50 in various cell lines (Table V), HT1080; type: cell-based; conditions: Homo sapiens, HT-1080
[17] = system: 1205LU (Melanoma); test: IC-50 in various cell lines (Table V), 1205LU; type: cell-based; conditions: Homo sapiens
[18] = system: FF2441 (fibroblast cells); test: IC-50 in various cell lines (Table V), FF2441; type: cell-based; conditions: Homo sapiens
[19] = system: IGROV-1 (ovarian carcinoma); test: IC-50 in various cell lines (Table V), IGROV-1; type: cell-based; conditions: Homo sapiens
[20] = system: A549 (lung); test: IC-50 in various cell lines (Table V), A549; type: cell-based; conditions: Homo sapiens
[21] = system: MDA-MB 231 (breast); test: IC-50 in various cell lines (Table V), MDA-MB 231; type: cell-based; conditions: Homo sapiens
[22] = system: PC-3 (Prostate); test: IC-50 in various cell lines (Table V), PC-3; type: cell-based
[23] = system: CaCO2 (Colon Carcinoma); test: IC-50 in various cell lines (Table V), CaCO2; type: cell-based; conditions: Homo sapiens, Caco-2
[24] = Toxicity assessments in nude mice (blood parameters, histology); type: in vivo
From the text: Animals are sacrificed by CO2 asphyxiation and blood collected from each animal in plasma separator tubes with lithium heparin (BD Microtainer, BD, Franklin Lakes, N.J.) following cardiac puncture and analyzed for AST (aspartate aminotransferase), ALT, (alanyl aminotransferase), alkaline phosphatase, glucose and creatinine to ascertain liver, heart, kidney and pancreas related toxicity. For morphological examination of blood cells, whole blood is collected in microtainer tubes containing K2EDTA (BD Microtainer, BD, Franklin Lakes, N.J.) and RBC, WBC, lymphocytes, monocytes, eosinophils, platelets, total hemoglobin and hematocrit percentage analyzed. Blood is also microscopically examined for segregates, polychromatin bodies, and smudge cells. A portion of liver, heart, kidney, spleen, intestine pancreas and adrenal from each animal is formalin fixed and paraffin-embedded to examine toxicity-related changes in cell or organ morphology by H&E staining.

[25] = system: 1205 Lu melanoma cells; test: Tumor development in nude mice, subcutaneous 1205 Lu, i.p. treatment; type: in vivo; conditions: 0.76 μmoles i.p. thrice per week
From the text: (Monday, Wednesday and Friday).

[26] = 0.76 μmoles i.p. thrice per week

Row | SMILES | IC50 [1] [µM] | IC50 [2] [µM] | IC50 [3] [µM] | IC50 [5] [µM] | IC50 [6] [µM] | IC50 [7] [µM] | IC50 [8] [µM] | IC50 [9] [µM] | G0/G1 cell population ([14]; 15 μM) | G2/M cell population ([14]; 15 μM) | S cell population ([14]; 15 μM) | subG0/G1 cell population ([14]; 15 μM) | further results
1 | [Se]=C=NCCc1ccccc1 [ISC-2, Phenylethyl Isoselenocyanate] | 18 | 24 ± 1 | 20 ± 3 | 11 ± 1 | 16 ± 1 | 12 | 12 ± 3 | 8 |  |  |  |  | melanoma tumor volume [4]: reduce tumor volume
2 | [Se]=C=NCc1ccccc1 [ISC-1, Benzyl Isoselenocyanate] | > 25 | 43 ± 4 | 29 ± 2 | 13 ± 3 | 24 ± 1 | 16 | 13 ± 3 | > 25 |  |  |  |  | effect on tumor size ([4]; 0.76 μmoles i.p. thrice per week, Example 30): failed to show any effect
3 | CC(=O)NC(CSC(=[Se])NCCCCc1ccccc1)C(=O)O (stereo not drawn) [compound 5] |  |  |  |  |  |  |  |  |  |  |  |  | IC50 [10]: 17 ± 2 µM
4 | [Se]=C=NCCCCCCc1ccccc1 [ISC-6, Phenylhexyl Isoselenocyanate] | 7 | 23 ± 2 | 22 ± 2 | 10 ± 1 | 14 ± 1 | 10 ± 1 | 12 ± 1 | 7 | 41.6 | 26.1 | 32.2 | 15.9 | melanoma tumor volume [4]: reduce tumor volume; proliferative potential with increasing concentrations [11]: decreased proliferative potential; fold more effective than PBITC or PHITC at inhibiting cellular proliferation ([11]; 5-15 μM): ~2 fold; concentration completely inhibiting the Akt3 pathway (Western blot) [12]: 10 µM; cellular apoptosis with increasing concentrations (caspase-3/7 activity, words) [13]: increase cellular apoptosis; fold more effective than PBITC at inducing apoptosis ([13]; caspase-3/7 activity, 5-15 μM): ~2 fold; G0/G1 cell population ([14]; 5 μM): 56.8; G2/M cell population ([14]; 5 μM): 13.5; S cell population ([14]; 5 μM): 31.5; subG0/G1 cell population ([14]; 5 μM): 1.5; G0/G1 cell population ([14]; 10 μM): 44.9; G2/M cell population ([14]; 10 μM): 24.5; S cell population ([14]; 10 μM): 30.5; subG0/G1 cell population ([14]; 10 μM): 7.6
5 | C[S+]([O-])CCCCN=C=S (stereo not drawn) [SFN, sulforaphane, reference compound] |  |  |  |  |  |  |  |  |  |  |  |  | IC50 ([15]; UACC-903 (Melanoma), read-out: IC-50): 40 ± 0.89 µM; IC50 ([16]; HT1080 (Soft Tissue Sarcoma), read-out: IC-50): > 50 µM; IC50 ([17]; 1205LU (Melanoma), read-out: IC-50): > 50 µM; IC50 ([18]; FF2441 (fibroblast cells), read-out: IC-50): > 50 µM; IC50 ([19]; IGROV-1 (ovarian carcinoma), read-out: IC-50): > 50 µM; IC50 ([20]; A549 (lung), read-out: IC-50): 73 ± 3.6 µM; IC50 ([21]; MDA-MB 231 (breast), read-out: IC-50): 57 ± 5 µM; IC50 ([22]; PC-3 (Prostate), read-out: IC-50): > 50 µM; IC50 ([23]; CaCO2 (Colon Carcinoma), read-out: IC-50): 48 ± 5.9 µM
6 | N#C[Se]CCCCCCc1ccccc1 [PHSC, Phenylhexyl selenocyanate] |  |  |  |  |  |  |  |  | 61.4 | 11.5 | 26.9 | 2.4 | 
7 | S=C=NCCCCc1ccccc1 [PBITC, phenylbutylisothiocyanate, reference compound] | 19 ± 5 | 35 ± 1 | 27 ± 2 | 27 ± 2 | 24 ± 2 | 15 ± 1 | 15 ± 1 | 7 ± 1 | 42.1 | 27.4 | 30.5 | 20.8 | blood SGOT, SGPT, alkaline phosphatase, glucose and creatinine ([24]; 0.76 μmoles i.p. 3 times per week for 3 weeks, compared to vehicle DMSO): did not alter parameters; basal urea nitrogen (BUN), creatinine and glucose levels ([24]; treated versus control animals): not significantly different; tumor burden [4, 26]: ineffective at reducing tumor burden; proliferative potential with increasing concentrations [11]: decreased proliferative potential; cellular apoptosis with increasing concentrations (caspase-3/7 activity, words) [13]: increase cellular apoptosis; G0/G1 cell population ([14]; 5 μM): 37.4; G2/M cell population ([14]; 5 μM): 34.7; S cell population ([14]; 5 μM): 27.8; subG0/G1 cell population ([14]; 5 μM): 4.9; G0/G1 cell population ([14]; 10 μM): 37.2; G2/M cell population ([14]; 10 μM): 31.9; S cell population ([14]; 10 μM): 30.9; subG0/G1 cell population ([14]; 10 μM): 10.4; tumor burden [25]: ineffective at reducing tumor burden
8 | S=C=NCc1ccccc1 [BITC, Benzyl isothiocyanate, reference compound] | > 25 | > 100 | 42 ± 3 | 15 ± 2 | > 50 | 15 | > 50 | 13 |  |  |  |  | effect on tumor size ([4]; 2.5 micromoles i.p. thrice per week, FIG. 18C): most effective
9 | S=C=NCCc1ccccc1 [PEITC, phenylethyl isothiocyanate, reference compound] | 24 ± 2 | > 100 | 38 ± 6 | 14 ± 2 | 24 ± 2 | 12 ± 1 | 15 ± 1 | 12 ± 1 |  |  |  |  | 
10 | S=C=NCCCCCCc1ccccc1 [PHITC, Phenylhexylisothiocyanate] | 11 ± 4 | 26 ± 2 | 24 ± 2 | 49 ± 9 | 17 ± 1 | 15 ± 2 | 29 ± 3 | 8 ± 1 | 40.7 | 29.7 | 29.6 | 12.5 | tumor burden [4, 26]: ineffective at reducing tumor burden; proliferative potential with increasing concentrations [11]: decreased proliferative potential; cellular apoptosis with increasing concentrations (caspase-3/7 activity, words) [13]: increase cellular apoptosis; G0/G1 cell population ([14]; 5 μM): 58.7; G2/M cell population ([14]; 5 μM): 13.1; S cell population ([14]; 5 μM): 28.2; subG0/G1 cell population ([14]; 5 μM): 1.4; G0/G1 cell population ([14]; 10 μM): 43.8; G2/M cell population ([14]; 10 μM): 27.5; S cell population ([14]; 10 μM): 28.7; subG0/G1 cell population ([14]; 10 μM): 5.4; tumor burden [25]: ineffective at reducing tumor burden
11 | C[S+]([O-])CCCCN=C=[Se] (stereo not drawn) [SFN Iso Se, 1-isoselenocyanato-4-(methylsulfinyl)butane] |  |  |  |  |  |  |  |  |  |  |  |  | IC50 ([15]; UACC-903): 17 ± 0.95 µM; IC50 [16]: 25.6 ± 1.82 µM; IC50 ([17]; 1205Lu): 39.2 ± 2 µM; IC50 ([18]; FF2441): > 50 µM; tumor development ([4]; 0.76 micromoles (3 ppm selenium) i.p., compared to controls, FIG. 14A): inhibition of tumor development; IC50 ([19]; IGROV-1): > 50 µM; IC50 ([20]; A549): 35 ± 1.7 µM; IC50 ([21]; MDA-MB-231): 20 ± 0.46 µM; IC50 [22]: 24.8 ± 0.58 µM; IC50 [23]: 16 ± 0.4 µM

— patent publication US20130178523A1, “ANTI-CANCER COMPOSITIONS AND METHODS” (THE PENN STATE RESEARCH FOUNDATION, priority 2007, published 2013)
